Patent US10626093B2, “Polymorphic form of crystalline rosuvastatin calcium and novel processes for crystalline as well as amorphous rosuvastatin calcium” (MOREPEN LABORATORIES LIMITED, priority 2016, dated 2020)

Tests used:
[1] = Stability study of Rosuvastatin calcium form M2 (plant batches, RT); type: physicochemical
Procedure: According to still another embodiment of current invention, The form M2 is stable at 30° C. with 65% RH for 24 months & 40° C. with 75% RH for 6 months for all ICH/EP/USP grade.

[2] = Stability study of Rosuvastatin calcium form M (30° C./65% RH and 40° C./75% RH); type: physicochemical
Procedure: According to one more aspect of current invention, the form M is stable at 30° C. with 65% RH for 48 months & 40° C. with 75% RH for 6 months for all ICH/EP/USP grade.

[3] = 40° C. with 75% RH for 6 months

Substance: 7-[4-(4-flurophenyl)-6-isopropyl-2-(N-methyl-N-methyl sulfonyl amino)-pyrimidin-5-yl]-(3R,5S)-dihydroxy-hept-6-enoic acid Calcium salt [form M2]
- Stability ([1]; 30° C. with 65% RH for 24 months): stable
- Stability [1, 3]: stable

Substance: 7-[4-(4-flurophenyl)-6-isopropyl-2-(N-methyl-N-methylsulfonylamino)-pyrimidin-5-yl]-(3R,5S)-dihydroxy-hept-6-enoic acid Calcium salt [form M]
- Stability ([2]; 30° C. with 65% RH for 48 months): stable
- Assay (OAB) ([2]; 30° C./65% RH, 3 months): 99.58 % w/w
- Description ([2]; 30° C./65% RH, 3 months): A white
- Related Substances (HPLC) Individual Unknown Imp. ([2]; 30° C./65% RH, 3 months): 0.02%
- Related Substances (HPLC) Lactone ([2]; 30° C./65% RH, 3 months): 0.05%
- Related Substances (HPLC) RT-07 ([2]; 30° C./65% RH, 3 months): 0.05%
- Related Substances (HPLC) Total Imp. ([2]; 30° C./65% RH, 3 months): 0.16%
- Water ([2]; 30° C./65% RH, 3 months): 5.30%
- Assay (OAB) ([2]; 30° C./65% RH, 6 months): 99.54 % w/w
- Description ([2]; 30° C./65% RH, 6 months): A white
- Related Substances (HPLC) Individual Unknown Imp. ([2]; 30° C./65% RH, 6 months): 0.04%
- Related Substances (HPLC) Lactone ([2]; 30° C./65% RH, 6 months): 0.04%
- Related Substances (HPLC) RT-07 ([2]; 30° C./65% RH, 6 months): 0.05%
- Related Substances (HPLC) Total Imp. ([2]; 30° C./65% RH, 6 months): 0.14%
- Water ([2]; 30° C./65% RH, 6 months): 5.43%
- Assay (OAB) ([2]; 30° C./65% RH, 9 months): 99.33 % w/w
- Description ([2]; 30° C./65% RH, 9 months): A white
- Related Substances (HPLC) Individual Unknown Imp. ([2]; 30° C./65% RH, 9 months): 0.02%
- Related Substances (HPLC) Lactone ([2]; 30° C./65% RH, 9 months): 0.04%
- Related Substances (HPLC) RT-07 ([2]; 30° C./65% RH, 9 months): 0.05%
- Related Substances (HPLC) Total Imp. ([2]; 30° C./65% RH, 9 months): 0.14%
- Water ([2]; 30° C./65% RH, 9 months): 5.44%
- Assay (OAB) ([2]; 30° C./65% RH, 12 months): 99.55 % w/w
- Description ([2]; 30° C./65% RH, 12 months): A white
- Related Substances (HPLC) Anti-Isomer ([2]; 30° C./65% RH, 12 months): 0.04%
- Related Substances (HPLC) Individual Unknown Imp. ([2]; 30° C./65% RH, 12 months): 0.02%
- Related Substances (HPLC) Lactone ([2]; 30° C./65% RH, 12 months): 0.05%
- Related Substances (HPLC) RT-07 ([2]; 30° C./65% RH, 12 months): 0.06%
- Related Substances (HPLC) Total Imp. ([2]; 30° C./65% RH, 12 months): 0.17%
- Water ([2]; 30° C./65% RH, 12 months): 5.55%
- Assay (OAB) ([2]; 30° C./65% RH, 18 months): 99.70 % w/w
- Description ([2]; 30° C./65% RH, 18 months): A white
- Related Substances (HPLC) Anti-Isomer ([2]; 30° C./65% RH, 18 months): 0.03%
- Related Substances (HPLC) Individual Unknown Imp. ([2]; 30° C./65% RH, 18 months): 0.02%
- Related Substances (HPLC) Lactone ([2]; 30° C./65% RH, 18 months): 0.04%
- Related Substances (HPLC) RT-07 ([2]; 30° C./65% RH, 18 months): 0.05%
- Related Substances (HPLC) Total Imp. ([2]; 30° C./65% RH, 18 months): 0.16%
- Water ([2]; 30° C./65% RH, 18 months): 5.57%
- Assay (OAB) ([2]; 30° C./65% RH, 24 months): 99.81 % w/w
- Description ([2]; 30° C./65% RH, 24 months): A white
- Related Substances (HPLC) Anti-Isomer ([2]; 30° C./65% RH, 24 months): 0.04%
- Related Substances (HPLC) Individual Unknown Imp. ([2]; 30° C./65% RH, 24 months): 0.02%
- Related Substances (HPLC) Lactone ([2]; 30° C./65% RH, 24 months): 0.04%
- Related Substances (HPLC) RT-07 ([2]; 30° C./65% RH, 24 months): 0.05%
- Related Substances (HPLC) Total Imp. ([2]; 30° C./65% RH, 24 months): 0.15%
- Water ([2]; 30° C./65% RH, 24 months): 5.72%
- Assay (OAB) ([2]; 30° C./65% RH, 36 months): 99.75 % w/w
- Description ([2]; 30° C./65% RH, 36 months): A white
- Related Substances (HPLC) Anti-Isomer ([2]; 30° C./65% RH, 36 months): 0.04%
- Related Substances (HPLC) Individual Unknown Imp. ([2]; 30° C./65% RH, 36 months): 0.02%
- Related Substances (HPLC) Lactone ([2]; 30° C./65% RH, 36 months): 0.04%
- Related Substances (HPLC) RT-07 ([2]; 30° C./65% RH, 36 months): 0.05%
- Related Substances (HPLC) Total Imp. ([2]; 30° C./65% RH, 36 months): 0.16%
- Water ([2]; 30° C./65% RH, 36 months): 5.74%
- Assay (OAB) ([2]; 30° C./65% RH, 48 months): 99.66 % w/w
- Description ([2]; 30° C./65% RH, 48 months): A white
- Related Substances (HPLC) Anti-Isomer ([2]; 30° C./65% RH, 48 months): 0.05%
- Related Substances (HPLC) Individual Unknown Imp. ([2]; 30° C./65% RH, 48 months): 0.02%
- Related Substances (HPLC) Lactone ([2]; 30° C./65% RH, 48 months): 0.04%
- Related Substances (HPLC) RT-07 ([2]; 30° C./65% RH, 48 months): 0.05%
- Related Substances (HPLC) Total Imp. ([2]; 30° C./65% RH, 48 months): 0.16%
- Water ([2]; 30° C./65% RH, 48 months): 5.90%
- Stability [2, 3]: stable
- Assay (OAB) ([2]; 40° C./75% RH, 1 month): 100.03 % w/w
- Description ([2]; 40° C./75% RH, 1 month): A white
- Related Substances (HPLC) Individual Unknown Imp. ([2]; 40° C./75% RH, 1 month): 0.03%
- Related Substances (HPLC) Lactone ([2]; 40° C./75% RH, 1 month): 0.04%
- Related Substances (HPLC) RT-07 ([2]; 40° C./75% RH, 1 month): 0.05%
- Related Substances (HPLC) Total Imp. ([2]; 40° C./75% RH, 1 month): 0.14%
- Water ([2]; 40° C./75% RH, 1 month): 5.65%
- Assay (OAB) ([2]; 40° C./75% RH, 2 months): 99.93 % w/w
- Description ([2]; 40° C./75% RH, 2 months): A white
- Related Substances (HPLC) Individual Unknown Imp. ([2]; 40° C./75% RH, 2 months): 0.02%
- Related Substances (HPLC) Lactone ([2]; 40° C./75% RH, 2 months): 0.04%
- Related Substances (HPLC) RT-07 ([2]; 40° C./75% RH, 2 months): 0.05%
- Related Substances (HPLC) Total Imp. ([2]; 40° C./75% RH, 2 months): 0.15%
- Water ([2]; 40° C./75% RH, 2 months): 5.59%
- Assay (OAB) ([2]; 40° C./75% RH, 3 months): 100.03 % w/w
- Description ([2]; 40° C./75% RH, 3 months): A white
- Related Substances (HPLC) Individual Unknown Imp. ([2]; 40° C./75% RH, 3 months): 0.02%
- Related Substances (HPLC) Lactone ([2]; 40° C./75% RH, 3 months): 0.04%
- Related Substances (HPLC) RT-07 ([2]; 40° C./75% RH, 3 months): 0.05%
- Related Substances (HPLC) Total Imp. ([2]; 40° C./75% RH, 3 months): 0.13%
- Water ([2]; 40° C./75% RH, 3 months): 5.66%
- Assay (OAB) ([2]; 40° C./75% RH, 6 months): 99.59 % w/w
- Description ([2]; 40° C./75% RH, 6 months): A white
- Related Substances (HPLC) Individual Unknown Imp. ([2]; 40° C./75% RH, 6 months): 0.02%
- Related Substances (HPLC) Lactone ([2]; 40° C./75% RH, 6 months): 0.04%
- Related Substances (HPLC) RT-07 ([2]; 40° C./75% RH, 6 months): 0.04%
- Related Substances (HPLC) Total Imp. ([2]; 40° C./75% RH, 6 months): 0.12%
- Water ([2]; 40° C./75% RH, 6 months): 5.63%
- Assay (OAB) ([2]; Initial): 100.08 % w/w
- Description ([2]; Initial): A white
- Related Substances (HPLC) Individual Unknown Imp. ([2]; Initial): 0.02%
- Related Substances (HPLC) Lactone ([2]; Initial): 0.02%
- Related Substances (HPLC) RT-07 ([2]; Initial): 0.05%
- Related Substances (HPLC) Total Imp. ([2]; Initial): 0.13%
- Water ([2]; Initial): 5.06%
